Test results from PubChem BioAssay (NCI).
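Interpolation was linear, between the two tested concentrations surrounding the appropriate level; five concentrations were tested over 48 hours in 96-well plates. GI50 is the concentration that inhibits growth by half. Definition used: TGI = concentration required for complete inhibition of growth.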

How the values were obtained:
Assay in all cases: growth of human tumour cells (NCI), 48 h
MDA-MB-435 = test system: MDA-MB-435
UACC-257 melanoma = test system: UACC-257 melanoma
SK-MEL-28 melanoma = test system: SK-MEL-28 melanoma
ACHN renal = test system: ACHN renal
BT-549 breast = test system: BT-549 breast
PC-3 prostate = test system: PC-3 prostate
K-562 leukemia = test system: K-562 leukemia
NCI-H23 lung = test system: NCI-H23 lung
A498 renal = test system: A498 renal
SNB-75 CNS = test system: SNB-75 CNS
DU-145 prostate = test system: DU-145 prostate
SK-MEL-2 melanoma = test system: SK-MEL-2 melanoma
SN12C renal = test system: SN12C renal
RPMI-8226 leukemia = test system: RPMI-8226 leukemia
CAKI-1 renal = test system: CAKI-1 renal
NCI-H226 lung = test system: NCI-H226 lung
SK-MEL-5 melanoma = test system: SK-MEL-5 melanoma
NCI-H460 lung = test system: NCI-H460 lung
OVCAR-8 ovarian = test system: OVCAR-8 ovarian
HOP-62 NSCLC = test system: HOP-62 NSCLC
HT29 colon = test system: HT29 colon
NCI-H522 lung = test system: NCI-H522 lung
MALME-3M melanoma = test system: MALME-3M melanoma
SK-OV-3 ovarian = test system: SK-OV-3 ovarian
SF-295 CNS = test system: SF-295 CNS
COLO 205 colon = test system: COLO 205 colon
MDA-MB-231 breast = test system: MDA-MB-231 breast
MOLT-4 leukemia = test system: MOLT-4 leukemia
786-0 renal = test system: 786-0 renal
CCRF-CEM leukemia = test system: CCRF-CEM leukemia
U251 CNS = test system: U251 CNS
M14 melanoma = test system: M14 melanoma
T-47D breast = test system: T-47D breast
NCI/ADR-RES ovarian = test system: NCI/ADR-RES ovarian
HCT-15 colon = test system: HCT-15 colon
OVCAR-5 ovarian = test system: OVCAR-5 ovarian
HCT-116 colon = test system: HCT-116 colon
SNB-19 CNS = test system: SNB-19 CNS
SF-268 CNS = test system: SF-268 CNS
OVCAR-4 ovarian = test system: OVCAR-4 ovarian
UO-31 renal = test system: UO-31 renal
MCF7 breast = test system: MCF7 breast
HL-60(TB) leukemia = test system: HL-60(TB) leukemia
UACC-62 melanoma = test system: UACC-62 melanoma
LOX IMVI melanoma = test system: LOX IMVI melanoma
HS 578T breast = test system: HS 578T breast
SR leukemia = test system: SR leukemia
A549 NSCLC = test system: A549 NSCLC
SF-539 CNS = test system: SF-539 CNS
IGROV1 ovarian = test system: IGROV1 ovarian
EKVX NSCLC = test system: EKVX NSCLC
KM12 colon = test system: KM12 colon
OVCAR-3 ovarian = test system: OVCAR-3 ovarian
TK-10 renal = test system: TK-10 renal

O=C(N/N=C(\CN1CCN(c2cc3[nH]cc(C(=O)O)c(=O)c3cc2F)CC1)c1ccc(Cl)cc1)c1ccncc1
GI50 (MDA-MB-435): 19.4 µM | TGI (MDA-MB-435): 49.4 µM | GI50 (UACC-257 melanoma): 23.2 µM | TGI (UACC-257 melanoma): 49 µM | GI50 (SK-MEL-28 melanoma): > 100 µM | TGI (SK-MEL-28 melanoma): > 100 µM | GI50 (ACHN renal): 18.4 µM | TGI (ACHN renal): 42.6 µM | GI50 (BT-549 breast): 33.6 µM | TGI (BT-549 breast): > 100 µM | GI50 (PC-3 prostate): 22.7 µM | TGI (PC-3 prostate): 52.4 µM | GI50 (K-562 leukemia): 26.9 µM | TGI (K-562 leukemia): > 100 µM | GI50 (NCI-H23 lung): 30.8 µM | TGI (NCI-H23 lung): 81.2 µM | GI50 (A498 renal): 23.3 µM | TGI (A498 renal): > 100 µM | GI50 (SNB-75 CNS): 61.6 µM | TGI (SNB-75 CNS): > 100 µM | GI50 (DU-145 prostate): 36 µM | TGI (DU-145 prostate): > 100 µM | GI50 (SK-MEL-2 melanoma): 30.7 µM | TGI (SK-MEL-2 melanoma): 74.4 µM | GI50 (SN12C renal): 24.8 µM | TGI (SN12C renal): 61.8 µM | GI50 (RPMI-8226 leukemia): 19 µM | TGI (RPMI-8226 leukemia): 43 µM | GI50 (CAKI-1 renal): 1.96 µM | TGI (CAKI-1 renal): 5.61 µM | GI50 (NCI-H226 lung): 23.1 µM | TGI (NCI-H226 lung): 80.5 µM | GI50 (SK-MEL-5 melanoma): 16.4 µM | TGI (SK-MEL-5 melanoma): 31.6 µM | GI50 (NCI-H460 lung): 22.7 µM | TGI (NCI-H460 lung): 67.6 µM | GI50 (OVCAR-8 ovarian): 21.4 µM | TGI (OVCAR-8 ovarian): 47.4 µM | GI50 (HOP-62 NSCLC): 39.4 µM | TGI (HOP-62 NSCLC): > 100 µM | GI50 (HT29 colon): 37 µM | TGI (HT29 colon): > 100 µM | GI50 (NCI-H522 lung): 22.7 µM | TGI (NCI-H522 lung): 52.9 µM | GI50 (MALME-3M melanoma): 18.6 µM | TGI (MALME-3M melanoma): 58 µM | GI50 (SK-OV-3 ovarian): 78.6 µM | TGI (SK-OV-3 ovarian): > 100 µM | GI50 (SF-295 CNS): 21 µM | TGI (SF-295 CNS): 52.1 µM | GI50 (COLO 205 colon): 78 µM | TGI (COLO 205 colon): > 100 µM | GI50 (MDA-MB-231 breast): 20.2 µM | TGI (MDA-MB-231 breast): 46.1 µM | GI50 (MOLT-4 leukemia): 22.8 µM | TGI (MOLT-4 leukemia): 52.6 µM | GI50 (786-0 renal): 39.9 µM | TGI (786-0 renal): > 100 µM | GI50 (CCRF-CEM leukemia): 22.5 µM | TGI (CCRF-CEM leukemia): > 100 µM | GI50 (U251 CNS): 33.5 µM | TGI (U251 CNS): > 100 µM | GI50 (M14 melanoma): 32.3 µM | TGI (M14 melanoma): 79.5 µM | GI50 (T-47D breast): 42.2 µM | TGI (T-47D breast): > 100 µM | GI50 (NCI/ADR-RES ovarian): 28.4 µM | TGI (NCI/ADR-RES ovarian): 66.3 µM | GI50 (HCT-15 colon): 21.1 µM | TGI (HCT-15 colon): 42.8 µM | GI50 (OVCAR-5 ovarian): 50.9 µM | TGI (OVCAR-5 ovarian): > 100 µM | GI50 (HCT-116 colon): 37.5 µM | TGI (HCT-116 colon): > 100 µM | GI50 (SNB-19 CNS): 76.9 µM | TGI (SNB-19 CNS): > 100 µM | GI50 (SF-268 CNS): 25.8 µM | TGI (SF-268 CNS): 89.9 µM | GI50 (OVCAR-4 ovarian): 39.8 µM | TGI (OVCAR-4 ovarian): > 100 µM | GI50 (UO-31 renal): 18.7 µM | TGI (UO-31 renal): 41.8 µM | GI50 (MCF7 breast): 21 µM | TGI (MCF7 breast): 66.9 µM | GI50 (HL-60(TB) leukemia): 19.4 µM | TGI (HL-60(TB) leukemia): 43.3 µM | GI50 (UACC-62 melanoma): 25.6 µM | TGI (UACC-62 melanoma): 61.9 µM | GI50 (LOX IMVI melanoma): 16.8 µM | TGI (LOX IMVI melanoma): 33.4 µM | GI50 (HS 578T breast): 29.1 µM | TGI (HS 578T breast): 99.2 µM | GI50 (SR leukemia): 18.2 µM | TGI (SR leukemia): 55.4 µM | GI50 (A549 NSCLC): 22.3 µM | TGI (A549 NSCLC): 65.5 µM | GI50 (SF-539 CNS): 28.6 µM | TGI (SF-539 CNS): 87.4 µM | GI50 (IGROV1 ovarian): 3.32 µM | TGI (IGROV1 ovarian): 26.9 µM | GI50 (EKVX NSCLC): 38 µM | TGI (EKVX NSCLC): > 100 µM | GI50 (KM12 colon): 30.6 µM | TGI (KM12 colon): > 100 µM | GI50 (OVCAR-3 ovarian): 2.89 µM | TGI (OVCAR-3 ovarian): 19.9 µM | GI50 (TK-10 renal): 43 µM | TGI (TK-10 renal): > 100 µM
